Values after ≈ are worked out from the molar mass of the structure shown.
Legend:
[1] = target: Ribosomal protein S6 kinase beta-1 (Homo sapiens, UniProt P23443, T412E); test: Inhibition of N-terminal 6His-tagged human recombinant p70S6K T412E mutant (1 to 421 residues) in Sf21 insect cells using FITC-AHA-AKRRRLSSLRA-OH substrate peptide incubated for 90 mins
[2] = target: T1, Tyrosine-protein kinase JAK3 (Homo sapiens, UniProt P52333); test: Inhibition of JAK3 (unknown origin)
T1 sequence (P52333 whole entry): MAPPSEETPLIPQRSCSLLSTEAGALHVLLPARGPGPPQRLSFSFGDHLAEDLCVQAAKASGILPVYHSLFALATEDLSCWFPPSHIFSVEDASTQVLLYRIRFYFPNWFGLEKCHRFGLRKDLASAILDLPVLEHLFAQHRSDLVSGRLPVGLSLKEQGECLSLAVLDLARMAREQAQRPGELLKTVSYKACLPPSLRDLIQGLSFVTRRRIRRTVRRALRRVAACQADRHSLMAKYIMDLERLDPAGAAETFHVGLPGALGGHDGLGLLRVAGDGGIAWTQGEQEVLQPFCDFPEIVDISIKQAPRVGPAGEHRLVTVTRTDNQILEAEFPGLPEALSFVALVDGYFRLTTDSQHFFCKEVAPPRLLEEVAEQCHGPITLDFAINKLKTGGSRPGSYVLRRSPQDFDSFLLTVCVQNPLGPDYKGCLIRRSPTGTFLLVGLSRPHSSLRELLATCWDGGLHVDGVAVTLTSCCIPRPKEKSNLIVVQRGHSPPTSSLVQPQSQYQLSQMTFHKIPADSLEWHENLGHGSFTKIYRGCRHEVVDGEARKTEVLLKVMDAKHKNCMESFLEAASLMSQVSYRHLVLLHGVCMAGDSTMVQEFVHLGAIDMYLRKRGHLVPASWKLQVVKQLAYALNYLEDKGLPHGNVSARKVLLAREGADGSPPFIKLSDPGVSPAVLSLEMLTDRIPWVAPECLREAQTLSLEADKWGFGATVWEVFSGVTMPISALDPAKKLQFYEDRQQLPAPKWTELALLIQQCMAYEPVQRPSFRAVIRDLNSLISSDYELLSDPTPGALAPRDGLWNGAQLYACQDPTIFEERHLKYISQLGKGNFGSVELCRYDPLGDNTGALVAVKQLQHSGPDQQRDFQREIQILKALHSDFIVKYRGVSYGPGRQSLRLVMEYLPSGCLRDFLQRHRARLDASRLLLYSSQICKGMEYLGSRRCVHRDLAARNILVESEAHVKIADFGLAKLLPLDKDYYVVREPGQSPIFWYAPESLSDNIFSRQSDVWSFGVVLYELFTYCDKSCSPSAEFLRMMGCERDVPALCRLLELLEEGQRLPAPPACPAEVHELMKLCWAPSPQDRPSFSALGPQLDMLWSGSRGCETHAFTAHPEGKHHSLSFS

Homo sapiens = species on record: Homo sapiens; test: Antiproliferative activity against HMVEC incubated for 4 days by MTT assay; type: functional
[3] = Acute toxicity in white mongrel mouse administered as single intraperitoneal injection; type: organism-based; conditions: in vivo, ip
DU-145 = test: Antiproliferative activity against human DU145 cells incubated for 4 days by MTT assay; type: functional, cell-based; conditions: DU-145, 96 h
PC-3 = test: Antiproliferative activity against human PC3 cells incubated for 4 days by MTT assay; type: functional, cell-based; conditions: PC-3, 96 h
[4] = system: Lewis lung carcinoma cell line; test: Antiproliferative activity against mouse LL/2 cells incubated for 4 days by MTT assay; type: functional, cell-based; conditions: 96 h
B16-F10 = test: Antiproliferative activity against mouse B16F10 cells incubated for 4 days by MTT assay; type: functional, cell-based; conditions: B16-F10, 96 h
[5] = Inhibition of binding of vascular endothelial growth factor to heparin pre-incubated with VEGF prior to application to plates for 45 mins by ELISA
[6] = Inhibition of binding of beta-FGF to heparin pre-incubated with beta-FGF prior to application to plate for 45 mins by ELISA
MCF7 [7] = test: Antiproliferative activity against human MCF7 cells assessed as cell survival at 25 ug/ml relative to untreated control; type: functional; conditions: read-out: Survival
[8] = target: Epidermal growth factor receptor (Homo sapiens, UniProt P00533); test: Inhibition of EGFR (unknown origin)
MCF7 [9] = test: Cytotoxic activity against human MCF7 cells; type: functional, cell-based
T47D = test: Antiproliferative activity against human T47D cells assessed as inhibition of cell proliferation incubated for 48 hrs by cell-titer-Glo reagent based assay; type: functional
HT-29 = test: Antiproliferative activity against human HT-29 cells assessed as inhibition of cell proliferation incubated for 48 hrs by cell-titer-Glo reagent based assay; type: functional; conditions: HT-29, 48 h
NCI-H1299 = test: Antiproliferative activity against human NCI-H1299 cells assessed as inhibition of cell proliferation incubated for 48 hrs by cell-titer-Glo reagent based assay; type: functional; conditions: NCI-H1299, 48 h
MX1 = test: Antiproliferative activity against human MX1 cells assessed as inhibition of cell proliferation incubated for 48 hrs by cell-titer-Glo reagent based assay; type: functional; conditions: MX1, 48 h
MDA-MB-435 = test: Antiproliferative activity against human MDA-MB-435 cells assessed as inhibition of cell proliferation incubated for 48 hrs by cell-titer-Glo reagent based assay; type: functional; conditions: MDA-MB-435, 48 h
Caspase = test: Activation of caspase cascade in human T47D cells using N-(Ac-DEVD)-N'-ethoxycarbonyl-R110 fluorogenic substrate incubated for 48 hrs by fluorescent plate reader based assay; type: cell-based

Ribosomal protein S6 kinase beta-1, sequence (P23443 whole entry T412E, the tested form may be a part): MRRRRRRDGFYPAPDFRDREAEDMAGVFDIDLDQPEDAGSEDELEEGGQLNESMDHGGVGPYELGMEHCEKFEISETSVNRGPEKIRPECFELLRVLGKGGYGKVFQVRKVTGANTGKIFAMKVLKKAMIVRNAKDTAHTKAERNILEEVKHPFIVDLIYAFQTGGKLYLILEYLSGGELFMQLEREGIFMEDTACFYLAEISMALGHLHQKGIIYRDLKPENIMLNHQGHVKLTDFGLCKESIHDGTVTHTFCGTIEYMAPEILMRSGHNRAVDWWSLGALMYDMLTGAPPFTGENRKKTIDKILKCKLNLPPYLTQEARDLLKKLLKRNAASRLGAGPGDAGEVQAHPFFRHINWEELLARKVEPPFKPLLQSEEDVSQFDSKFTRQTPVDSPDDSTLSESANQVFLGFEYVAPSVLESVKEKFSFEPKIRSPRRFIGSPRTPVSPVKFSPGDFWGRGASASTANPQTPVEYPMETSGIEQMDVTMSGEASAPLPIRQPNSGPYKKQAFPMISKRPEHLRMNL
Epidermal growth factor receptor, sequence (P00533 whole entry): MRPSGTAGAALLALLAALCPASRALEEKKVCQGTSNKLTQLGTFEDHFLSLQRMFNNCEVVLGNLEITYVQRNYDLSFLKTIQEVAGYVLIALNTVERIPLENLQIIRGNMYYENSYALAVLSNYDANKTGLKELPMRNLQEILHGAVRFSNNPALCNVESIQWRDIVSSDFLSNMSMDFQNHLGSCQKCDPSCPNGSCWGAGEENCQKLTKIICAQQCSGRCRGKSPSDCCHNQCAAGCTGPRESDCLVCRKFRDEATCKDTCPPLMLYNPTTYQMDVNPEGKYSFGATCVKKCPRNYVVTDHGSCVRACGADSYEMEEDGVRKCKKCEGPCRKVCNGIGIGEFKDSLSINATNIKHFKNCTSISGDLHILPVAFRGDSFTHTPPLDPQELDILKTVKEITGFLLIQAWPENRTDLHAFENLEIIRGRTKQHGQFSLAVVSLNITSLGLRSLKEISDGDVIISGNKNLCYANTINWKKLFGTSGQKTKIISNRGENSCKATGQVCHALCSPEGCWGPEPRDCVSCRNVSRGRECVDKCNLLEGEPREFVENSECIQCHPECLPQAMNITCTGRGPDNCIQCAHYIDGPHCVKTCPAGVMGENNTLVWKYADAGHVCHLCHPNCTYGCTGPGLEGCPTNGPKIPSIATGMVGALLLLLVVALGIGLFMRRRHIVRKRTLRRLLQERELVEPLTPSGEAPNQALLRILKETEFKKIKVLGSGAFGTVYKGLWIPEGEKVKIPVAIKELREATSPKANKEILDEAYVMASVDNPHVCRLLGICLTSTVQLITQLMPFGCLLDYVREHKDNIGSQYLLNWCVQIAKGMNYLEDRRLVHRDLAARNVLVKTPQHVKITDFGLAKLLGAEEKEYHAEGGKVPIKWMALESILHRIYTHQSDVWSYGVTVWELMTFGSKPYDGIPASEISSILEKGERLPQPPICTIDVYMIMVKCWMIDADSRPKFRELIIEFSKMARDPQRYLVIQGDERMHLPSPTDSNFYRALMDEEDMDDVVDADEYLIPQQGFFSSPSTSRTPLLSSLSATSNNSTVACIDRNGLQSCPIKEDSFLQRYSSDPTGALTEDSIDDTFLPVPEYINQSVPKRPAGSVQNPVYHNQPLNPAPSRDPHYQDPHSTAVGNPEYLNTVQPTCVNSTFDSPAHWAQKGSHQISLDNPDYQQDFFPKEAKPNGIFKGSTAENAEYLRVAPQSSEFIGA

## CN(C)C[C@@H](Nc1nnnc2c(C(N)=O)cccc12)c1ccc(Cl)c(C(F)(F)F)c1
[1]
  IC50: < 0.025 µM

## NC(=O)c1c[nH]c2nnnc(O)c12
[2]
  IC50: < 10 µM

## CCCCCOc1cc2nnnc(Nc3ccc(OC(F)(F)F)cc3)c2cc1OC
Homo sapiens
  GI50: 38 µM

## CCN(CC)CCNc1nnnc2c1sc1nc(N3CCOCC3)c3c(c12)CC(C)(C)OC3
[3]
  MTD: 2000 mg/kg

## COc1cc2c(Nc3ccccc3)nnnc2cc1OCCCCl
Homo sapiens
  GI50: > 80 µM

## CCOc1cc2nnnc(Nc3ccc(F)c(Cl)c3)c2cc1OC
Homo sapiens
  GI50: 38.8 µM

## NC(=O)c1cccc2c(NCc3ccccc3)nnnc12
[1]
  IC50: 0.501 to 1 µM

## COc1cc2c(Nc3ccc(OC(F)(F)F)cc3)nnnc2cc1OCCCCl
Homo sapiens
  GI50: 23.2 µM

## COc1cc2c(Nc3ccc(F)c(Cl)c3)nnnc2cc1OCCCCl
Homo sapiens
  GI50: 7.98 µM
DU-145
  IC50: 3.79 to 6.91 µM
PC-3
  IC50: 3.79 to 6.91 µM
[4]
  IC50: 3.79 to 6.91 µM
B16-F10
  IC50: 3.79 to 6.91 µM

## CC(C)(CC(=O)On1nnc2ccccc2c1=O)CN1C(=O)c2cc3oc(-c4ccc(Cl)cc4)cc3n2C1=S
[5]
  IC50: 0.26 µM
[6]
  IC50: 0.16 µM

## COc1cc([C@@H](CN(C)C)Nc2nnnc3c(C(N)=O)cccc23)ccc1Cl
[1]
  IC50: 0.025 to 0.1 µM

## Oc1ccc(Nc2nnnc3sc4c(c23)CCC4)cc1
MCF7 [7]
  viability at 25 µg/mL: 13%
[8]
  IC50: 38.7 µM

## NC(=O)c1cccc2c(NCc3cccc(F)c3)nnnc12
[1]
  IC50: 0.501 to 1 µM

## CC(C)CCNc1nnnc2c1sc1nc(N3CCOCC3)c3c(c12)CC(C)(C)OC3
[3]
  MTD: 2000 mg/kg

## NC(=O)c1cccc2c(N[C@H](CN3CCC3)c3ccc(Cl)c(C(F)(F)F)c3)nnnc12
[1]
  IC50: < 0.025 µM

## NC(=O)c1cccc2c(N[C@H](CN3CCC3)c3ccc(Cl)c(Cl)c3)nnnc12
[1]
  IC50: < 0.025 µM

## COc1cc2c(Nc3ccc(F)cc3)nnnc2cc1OCCCCl
Homo sapiens
  GI50: 23.1 µM

## Oc1cccc(Nc2nnnc3sc4c(c23)CCC4)c1
MCF7 [7]
  viability at 25 µg/mL: 12%
[8]
  IC50: 52.1 µM

## NC(=O)c1cccc2c(NCc3ccc(C(F)(F)F)cc3)nnnc12
[1]
  IC50: 0.025 to 0.1 µM

## NC(=O)c1cccc2c(NCc3cccnc3)nnnc12
[1]
  IC50: > 1 µM

## O=c1[nH]nnc2c1C1C(=Cc3ccccc31)S2 (stereo not drawn)
MCF7 [9]
  IC50: 6 µg/mL (≈ 24.9 µM)

## COc1ccc(N(C)c2nnnc3ccccc23)cc1
T47D
  IC50: 0.007 to 0.05 µM
HT-29
  IC50: 0.007 to 0.05 µM
NCI-H1299
  IC50: 0.007 to 0.05 µM
MX1
  IC50: 0.007 to 0.05 µM
MDA-MB-435
  IC50: 0.007 to 0.05 µM
Caspase
  EC50: 0.016 µM

## NC(=O)c1cccc2c(NCc3cc(C(F)(F)F)ccn3)nnnc12
[1]
  IC50: > 1 µM

## N#Cc1cc([C@@H](CN2CCC2)Nc2nnnc3c(C(N)=O)cccc23)ccc1Cl
[1]
  IC50: < 0.025 µM

## COc1cc2c(Nc3cccc(OC(F)(F)F)c3)nnnc2cc1OCCCCl
Homo sapiens
  GI50: 24.9 µM

## CC1(C)Cc2c(c(N3CCOCC3)nc3sc4c(NN)nnnc4c23)CO1
[3]
  MTD: 2000 mg/kg

## Clc1ccc(Nc2nnnc3ccccc23)cc1
Homo sapiens
  GI50: > 80 µM

## CC1(C)Cc2c(c(N3CCOCC3)nc3sc4c(Cl)nnnc4c23)CO1
[3]
  MTD: 2000 mg/kg

## CC1(C)Cc2c(c(N3CCOCC3)nc3sc4c(N5CCNCC5)nnnc4c23)CO1
[3]
  MTD: 2000 mg/kg

## COc1cc2c(Nc3ccc(Cl)c(Cl)c3)nnnc2cc1OCCCCl
Homo sapiens
  GI50: 11 µM

## CCCCCCNc1nnnc2c1sc1nc(N3CCOCC3)c3c(c12)CC(C)(C)OC3
[3]
  MTD: 2000 mg/kg

## C=CCNc1nnnc2c1sc1nc(N3CCOCC3)c3c(c12)CC(C)(C)OC3
[3]
  MTD: 2000 mg/kg

## Clc1nnnc2c1sc1nc(N3CCOCC3)c3c(c12)CCCC3
[3]
  MTD: 2000 mg/kg

## NC(=O)c1cccc2c(NCc3cccc(C(F)(F)F)c3)nnnc12
[1]
  IC50: 0.101 to 0.5 µM

## NC(=O)c1cccc2c(N[C@H](CN3CCC3)c3ccc(F)c(C(F)(F)F)c3)nnnc12
[1]
  IC50: < 0.025 µM

## CC1(C)Cc2c(c(N3CCOCC3)nc3sc4c(NNc5ccccc5)nnnc4c23)CO1
[3]
  MTD: 2000 mg/kg

## CN(C)C[C@@H](Nc1nnnc2c(C(N)=O)cccc12)c1ccc(Cl)c(Cl)c1
[1]
  IC50: < 0.025 µM

## NC(=O)c1cccc2c(NCc3ccc(Cl)c(C(F)(F)F)c3)nnnc12
[1]
  IC50: < 0.025 µM

## NC(=O)c1cccc2c(NCc3ccccn3)nnnc12
[1]
  IC50: > 1 µM

## c1ccc(NNc2nnnc3c2sc2nc(N4CCOCC4)c4c(c23)CCCC4)cc1
[3]
  MTD: 2000 mg/kg

## NNc1nnnc2c1sc1nc(N3CCOCC3)c3c(c12)CCCC3
[3]
  MTD: 2000 mg/kg

## CCCCCOc1cc2nnnc(Nc3cccc(OC(F)(F)F)c3)c2cc1OC
Homo sapiens
  GI50: 42.6 µM

## CCOc1cc2nnnc(Nc3ccc(C)cc3)c2cc1OC
Homo sapiens
  GI50: 42.6 µM

## CC1(C)Cc2c(c(N3CCOCC3)nc3sc4c(N(Cc5ccccc5)Cc5ccccc5)nnnc4c23)CO1
[3]
  MTD: 2000 mg/kg

## CC(C)CCNc1nnnc2c1sc1nc(N3CCOCC3)c3c(c12)CCCC3
[3]
  MTD: 2000 mg/kg

## COc1cc2c(Nc3ccc(C)cc3)nnnc2cc1OCCCCl
Homo sapiens
  GI50: 17.1 µM

## COc1cc2c(Nc3ccc(Cl)cc3)nnnc2cc1OCCCCl
Homo sapiens
  GI50: 18.6 µM

## CCCCCOc1cc2nnnc(Nc3ccc(Cl)cc3)c2cc1OC
Homo sapiens
  GI50: 25.4 µM

## COc1cc2c(Nc3cc(Cl)cc(Cl)c3)nnnc2cc1OCCCCl
Homo sapiens
  GI50: 28.8 µM

## CN(C)C[C@@H](Nc1nnnc2c(C(N)=O)cccc12)c1ccc(Cl)c(C#N)c1
[1]
  IC50: 0.025 to 0.1 µM

## COc1cc([C@@H](CN2CCC2)Nc2nnnc3c(C(N)=O)cccc23)ccc1Cl
[1]
  IC50: < 0.025 µM

## c1coc(CNc2nnnc3c2sc2nc(N4CCOCC4)c4c(c23)CCCC4)c1
[3]
  MTD: 2000 mg/kg

## NC(=O)c1cccc2c(NCc3ccc(Cl)c(Cl)c3)nnnc12
[1]
  IC50: < 0.025 µM

## COc1cc2c(Nc3cccc(C(F)(F)F)c3)nnnc2cc1OCCCCl
Homo sapiens
  GI50: 21.4 µM

## COc1cc2c(Nc3ccc(F)c(C(F)(F)F)c3)nnnc2cc1OCCCCl
Homo sapiens
  GI50: 15.2 µM

## CCOc1cc2nnnc(Nc3ccc(Cl)cc3)c2cc1OC
Homo sapiens
  GI50: 26.5 µM

Reference: ChEMBL document CHEMBL4229324, “Synthesis and antitumor activities of 1,2,3-triazines and their benzo- and heterofused derivatives” (Eur J Med Chem, 2017)
